# Test results from the supplement of paper PMC4862054.
# Experiments:
# Details in all cases: incubation time: 72 h
# CAL-148 [1] = test: drug sensitivity score (DSS), CellTiter-Glo (DSS (AUC-based score)); higher = stronger drug effect (viability inhibition or cytotoxicity); extreme values may be limits of the assay
# Outline: (§1)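 Compound was dispensed into 384-well plates at 5 concentrations in 10-fold steps spanning a 10,000-fold range chosen for each compound, and 20 µl of breast cancer cell suspension was added before 72 h of incubation. CellTox Green fluorescence was read at 485/520 nm, followed by CellTiter-Glo luminescence after 10 min at room temperature. Values on each plate were normalised to 0.1 % DMSO and a positive kill control. The drug sensitivity score came from the area under the fitted dose-response curve.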
# HCC1143 [2] = test: as above
# Outline: as §1
# MCF-10A = test: as above
# Outline: as §1
# MDA-MB-468 [3] = test: as above
# Outline: as §1
# HCC1599 [4] = test: as above
# Outline: as §1
# SK-BR-3 [5] = test: as above
# Outline: as §1
# MDA-MB-436 [6] = test: as above
# Outline: as §1
# DU-4475 [7] = test: normalised viability (% of control), CellTiter-Blue; higher = more viable cells (about 100 = DMSO control)
# Procedure: (§2)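 DSRT, CellTiter-Blue viability, 72 h incubation. Signal is normalised to DMSO and benzethonium chloride controls. Value is the normalised response at dose 3.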
# CAL-148 [8] = test: as above
# Procedure: as §2
# HCC1937 = test: as above
# Procedure: as §2
# MFM-223 = test: as above
# Procedure: as §2
# HCC1143 [9] = test: as above
# Procedure: as §2
# MDA-MB-468 [10] = test: as above
# Procedure: as §2
# HCC1599 [11] = test: as above
# Procedure: as §2
# Hs578T = test: as above
# Procedure: as §2
# CAL-120 = test: as above
# Procedure: as §2
# BT-549 = test: as above
# Procedure: as §2
# HDQ-P1 = test: as above
# Procedure: as §2
# MDA-MB-453 = test: as above
# Procedure: as §2
# CAL-85-1 [12] = test: as above
# Procedure: as §2
# MDA-MB-231 = test: as above
# Procedure: as §2
# SK-BR-3 [13] = test: as above
# Procedure: as §2
# CAL-51 [14] = test: as above
# Procedure: as §2
# MDA-MB-436 [15] = test: as above
# Procedure: as §2
# BT-474 = test: as above
# Procedure: as §2
# DU-4475 [16] = test: normalised viability (% of control), CellTiter-Blue; higher = more viable cells (about 100 = DMSO control); remark: listed apart in the source
# Outline: (§3)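 Compound dissolved in 5 µl medium was pre-loaded into 384-well plates, and breast cancer cell lines in 20 µl suspension were seeded on top and incubated 72 h. After adding 2.5 µl CellTiter-Blue reagent for 2 h at 37 °C, fluorescence was read at 560/590 nm. Plates were normalised to vehicle (100) and a positive kill control (0), with Z'-factor quality control. Each value is normalised viability at a single listed concentration from the series.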
# CAL-148 [17] = test: as above; remark: listed apart in the source
# Outline: as §3
# CAL-85-1 [18] = test: as above; remark: listed apart in the source
# Outline: as §3
# CAL-51 [19] = test: as above; remark: listed apart in the source
# Outline: as §3
compound,measurement,setting,value
Nc1nc(F)nc2c1ncn2[C@@H]1O[C@H](CO)[C@@H](O)[C@@H]1O [Fludarabine],drug sensitivity score,CAL-148 [1],0
same,drug sensitivity score,HCC1143 [2],0
same,drug sensitivity score,MCF-10A,0
same,drug sensitivity score,MDA-MB-468 [3],0
same,drug sensitivity score,HCC1599 [4],0
same,drug sensitivity score,SK-BR-3 [5],0
same,drug sensitivity score,MDA-MB-436 [6],1.1
same,normalised viability,DU-4475 [7]; 10 nM,115%
same,normalised viability,CAL-148 [8]; 10 nM,90.9%
same,normalised viability,HCC1937; 100 nM,110%
same,normalised viability,MFM-223; 100 nM,92.8%
same,normalised viability,HCC1143 [9]; 100 nM,83%
same,normalised viability,MDA-MB-468 [10]; 100 nM,109%
same,normalised viability,HCC1599 [11]; 100 nM,105%
same,normalised viability,Hs578T; 100 nM,95.4%
same,normalised viability,CAL-120; 100 nM,82.2%
same,normalised viability,BT-549; 100 nM,107%
same,normalised viability,HDQ-P1; 10 nM,103%
same,normalised viability,MDA-MB-453; 10 nM,109%
same,normalised viability,CAL-85-1 [12]; 10 nM,101%
same,normalised viability,MDA-MB-231; 100 nM,95.3%
same,normalised viability,SK-BR-3 [13]; 100 nM,99.9%
same,normalised viability,CAL-51 [14]; 10 nM,101%
same,normalised viability,MDA-MB-436 [15]; 100 nM,95.2%
same,normalised viability,BT-474; 100 nM,107%
same,normalised viability,DU-4475 [16]; 300 nM,100%
same,normalised viability,CAL-148 [17]; 300 nM,72.2%
same,normalised viability,CAL-85-1 [18]; 300 nM,90.4%
same,normalised viability,CAL-51 [19]; 300 nM,103%
COc1cc([C@@H]2c3cc4c(cc3[C@@H](O[C@@H]3O[C@@H]5CO[C@@H](c6cccs6)O[C@H]5[C@H](O)[C@H]3O)[C@H]3COC(=O)[C@H]23)OCO4)cc(OC)c1O [Teniposide],drug sensitivity score,CAL-148 [1],15.7
same,drug sensitivity score,HCC1143 [2],12
same,drug sensitivity score,MCF-10A,0
same,drug sensitivity score,MDA-MB-468 [3],13.5
same,drug sensitivity score,HCC1599 [4],19
same,drug sensitivity score,SK-BR-3 [5],20.3
same,drug sensitivity score,MDA-MB-436 [6],16.8
same,normalised viability,DU-4475 [7]; 10 nM,67.2%
same,normalised viability,CAL-148 [8]; 10 nM,95.5%
same,normalised viability,HCC1937; 100 nM,61.4%
same,normalised viability,MFM-223; 100 nM,101%
same,normalised viability,HCC1143 [9]; 100 nM,79.4%
same,normalised viability,MDA-MB-468 [10]; 100 nM,79.8%
same,normalised viability,HCC1599 [11]; 100 nM,87.8%
same,normalised viability,Hs578T; 100 nM,71.5%
same,normalised viability,CAL-120; 100 nM,75.2%
same,normalised viability,BT-549; 100 nM,70.9%
same,normalised viability,HDQ-P1; 10 nM,106%
same,normalised viability,MDA-MB-453; 10 nM,111%
same,normalised viability,CAL-85-1 [12]; 10 nM,101%
same,normalised viability,MDA-MB-231; 100 nM,81.8%
same,normalised viability,SK-BR-3 [13]; 100 nM,52.3%
same,normalised viability,CAL-51 [14]; 10 nM,95%
same,normalised viability,MDA-MB-436 [15]; 100 nM,81.8%
same,normalised viability,BT-474; 100 nM,105%
same,normalised viability,DU-4475 [16]; 300 nM,10.4%
same,normalised viability,CAL-148 [17]; 300 nM,49.2%
same,normalised viability,CAL-85-1 [18]; 300 nM,82.6%
same,normalised viability,CAL-51 [19]; 300 nM,28.1%
CCN(CC)CCCC(C)Nc1c2ccc(Cl)cc2nc2ccc(OC)cc12 (configuration not stated) [Mepacrine],drug sensitivity score,CAL-148 [1],0
same,drug sensitivity score,HCC1143 [2],0
same,drug sensitivity score,MCF-10A,0
same,drug sensitivity score,MDA-MB-468 [3],0
same,drug sensitivity score,HCC1599 [4],0
same,drug sensitivity score,SK-BR-3 [5],0
same,drug sensitivity score,MDA-MB-436 [6],0
same,normalised viability,DU-4475 [7]; 0.99 nM,83.1%
same,normalised viability,DU-4475 [7]; 10 nM,96.4%
same,normalised viability,CAL-148 [8]; 0.99 nM,116%
same,normalised viability,CAL-148 [8]; 10 nM,107%
same,normalised viability,HCC1937; 9.9 nM,99.4%
same,normalised viability,HCC1937; 100 nM,87.4%
same,normalised viability,MFM-223; 9.9 nM,97%
same,normalised viability,MFM-223; 100 nM,97.9%
same,normalised viability,HCC1143 [9]; 9.9 nM,130%
same,normalised viability,HCC1143 [9]; 100 nM,106%
same,normalised viability,MDA-MB-468 [10]; 9.9 nM,110%
same,normalised viability,MDA-MB-468 [10]; 100 nM,105%
same,normalised viability,HCC1599 [11]; 9.9 nM,88.2%
same,normalised viability,HCC1599 [11]; 100 nM,88.9%
same,normalised viability,Hs578T; 9.9 nM,114%
same,normalised viability,Hs578T; 100 nM,110%
same,normalised viability,CAL-120; 9.9 nM,117%
same,normalised viability,CAL-120; 100 nM,104%
same,normalised viability,BT-549; 9.9 nM,86.1%
same,normalised viability,BT-549; 100 nM,90.3%
same,normalised viability,HDQ-P1; 0.99 nM,117%
same,normalised viability,HDQ-P1; 10 nM,114%
same,normalised viability,MDA-MB-453; 0.99 nM,98.4%
same,normalised viability,MDA-MB-453; 10 nM,100%
same,normalised viability,CAL-85-1 [12]; 0.99 nM,99%
same,normalised viability,CAL-85-1 [12]; 10 nM,92.6%
same,normalised viability,MDA-MB-231; 9.9 nM,95.2%
same,normalised viability,MDA-MB-231; 100 nM,89.8%
same,normalised viability,SK-BR-3 [13]; 9.9 nM,99.8%
same,normalised viability,SK-BR-3 [13]; 100 nM,91.3%
same,normalised viability,CAL-51 [14]; 0.99 nM,95.9%
same,normalised viability,CAL-51 [14]; 10 nM,99.6%
same,normalised viability,MDA-MB-436 [15]; 9.9 nM,108%
same,normalised viability,MDA-MB-436 [15]; 100 nM,91.3%
same,normalised viability,BT-474; 9.9 nM,113%
same,normalised viability,BT-474; 100 nM,109%
same,normalised viability,DU-4475 [16]; 29.7 nM,88.3%
same,normalised viability,DU-4475 [16]; 300 nM,80.9%
same,normalised viability,CAL-148 [17]; 29.7 nM,105%
same,normalised viability,CAL-148 [17]; 300 nM,102%
same,normalised viability,CAL-85-1 [18]; 29.7 nM,101%
same,normalised viability,CAL-85-1 [18]; 300 nM,100%
same,normalised viability,CAL-51 [19]; 29.7 nM,86.1%
same,normalised viability,CAL-51 [19]; 300 nM,104%
COc1cc2c(Oc3ccc4[nH]c(C)cc4c3F)ncnc2cc1OCCCN1CCCC1 [Cediranib],drug sensitivity score,CAL-148 [1],0
same,drug sensitivity score,HCC1143 [2],0
same,drug sensitivity score,MCF-10A,0
same,drug sensitivity score,MDA-MB-468 [3],0
same,drug sensitivity score,HCC1599 [4],0
same,drug sensitivity score,SK-BR-3 [5],0
same,drug sensitivity score,MDA-MB-436 [6],0
same,normalised viability,DU-4475 [7]; 1 nM,97.6%
same,normalised viability,CAL-148 [8]; 1 nM,97.3%
same,normalised viability,HCC1937; 10 nM,96.6%
same,normalised viability,MFM-223; 10 nM,78.9%
same,normalised viability,HCC1143 [9]; 10 nM,125%
same,normalised viability,MDA-MB-468 [10]; 10 nM,103%
same,normalised viability,HCC1599 [11]; 10 nM,95.1%
same,normalised viability,Hs578T; 10 nM,78.1%
same,normalised viability,CAL-120; 10 nM,112%
same,normalised viability,BT-549; 10 nM,78.1%
same,normalised viability,HDQ-P1; 1 nM,92.7%
same,normalised viability,MDA-MB-453; 1 nM,78.9%
same,normalised viability,CAL-85-1 [12]; 1 nM,105%
same,normalised viability,MDA-MB-231; 10 nM,82.1%
same,normalised viability,SK-BR-3 [13]; 10 nM,65.8%
same,normalised viability,CAL-51 [14]; 1 nM,87.2%
same,normalised viability,MDA-MB-436 [15]; 10 nM,92.9%
same,normalised viability,BT-474; 10 nM,98.4%
same,normalised viability,DU-4475 [16]; 30 nM,95%
same,normalised viability,CAL-148 [17]; 30 nM,103%
same,normalised viability,CAL-85-1 [18]; 30 nM,90.4%
same,normalised viability,CAL-51 [19]; 30 nM,86%
CCCS(=O)(=O)Nc1ccc(F)c(C(=O)c2c[nH]c3ncc(-c4ccc(Cl)cc4)cc23)c1F [Vemurafenib],drug sensitivity score,CAL-148 [1],0
same,drug sensitivity score,HCC1143 [2],0
same,drug sensitivity score,MCF-10A,0
same,drug sensitivity score,MDA-MB-468 [3],0
same,drug sensitivity score,HCC1599 [4],0
same,drug sensitivity score,SK-BR-3 [5],0
same,drug sensitivity score,MDA-MB-436 [6],0
same,normalised viability,DU-4475 [7]; 10 nM,107%
same,normalised viability,CAL-148 [8]; 10 nM,98.1%
same,normalised viability,HCC1937; 100 nM,96.4%
same,normalised viability,MFM-223; 100 nM,87.5%
same,normalised viability,HCC1143 [9]; 100 nM,80.1%
same,normalised viability,MDA-MB-468 [10]; 100 nM,104%
same,normalised viability,HCC1599 [11]; 100 nM,98%
same,normalised viability,Hs578T; 100 nM,110%
same,normalised viability,CAL-120; 100 nM,92.7%
same,normalised viability,BT-549; 100 nM,98.2%
same,normalised viability,HDQ-P1; 10 nM,87.6%
same,normalised viability,MDA-MB-453; 10 nM,107%
same,normalised viability,CAL-85-1 [12]; 10 nM,98.6%
same,normalised viability,MDA-MB-231; 100 nM,94.6%
same,normalised viability,SK-BR-3 [13]; 100 nM,96.9%
same,normalised viability,CAL-51 [14]; 10 nM,97.1%
same,normalised viability,MDA-MB-436 [15]; 100 nM,81.6%
same,normalised viability,BT-474; 100 nM,111%
same,normalised viability,DU-4475 [16]; 300 nM,55.1%
same,normalised viability,CAL-148 [17]; 300 nM,90.3%
same,normalised viability,CAL-85-1 [18]; 300 nM,87.4%
same,normalised viability,CAL-51 [19]; 300 nM,96.5%
